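Where inhibition never reached the appropriate level, the endpoint shown equals the highest concentration tested. Otherwise, values were interpolated linearly from a five-concentration, 48-hour dose response in 96-well plates. At the GI50, growth is halved.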 Calls of active or inactive are those of the source. Rule as the data show it: active = GI50 up to about 1.1 µM and inactive = higher.
Columns and labels:
Assay in all cases: NCI anticancer screen, dose series, 48 h
786-0 = system: 786-0
A549 = system: A549
ACHN = system: ACHN
BT-549 = system: BT-549
CAKI-1 = system: CAKI-1
CCRF-CEM = system: CCRF-CEM
COLO 205 = system: COLO 205
DU-145 = system: DU-145
EKVX = system: EKVX
HCT-116 = system: HCT-116
HCT-15 = system: HCT-15
HL-60 = system: HL-60
HOP-62 = system: HOP-62
HOP-92 = system: HOP-92
HT-29 = system: HT-29
Hs-578T = system: Hs-578T
IGROV-1 = system: IGROV-1
K562 = system: K562
KM12 = system: KM12
LOX IMVI = system: LOX IMVI
M14 = system: M14
MCF7 = system: MCF7
MDA-MB-435 = system: MDA-MB-435
MOLT-4 = system: MOLT-4
Malme-3M = system: Malme-3M
NCI-H226 = system: NCI-H226
NCI-H23 = system: NCI-H23
NCI-H460 = system: NCI-H460
NCI-H522 = system: NCI-H522
NCI/ADR-RES = system: NCI/ADR-RES
OVCAR-3 = system: OVCAR-3
OVCAR-4 = system: OVCAR-4
OVCAR-5 = system: OVCAR-5
OVCAR-8 = system: OVCAR-8
PC-3 = system: PC-3
RPMI-8226 = system: RPMI-8226
SF-268 = system: SF-268
SF-295 = system: SF-295
SK-MEL-28 = system: SK-MEL-28
SK-MEL-2 = system: SK-MEL-2
SK-MEL-5 = system: SK-MEL-5
SK-OV-3 = system: SK-OV-3
SN12C = system: SN12C
SNB-19 = system: SNB-19
SNB-75 = system: SNB-75
SR = system: SR
SW-620 = system: SW-620
T47D = system: T47D
TK-10 = system: TK-10
U-251 = system: U-251
UACC-257 = system: UACC-257
UACC-62 = system: UACC-62
UO-31 = system: UO-31
A498 = system: A498
MDA-MB-231 = system: MDA-MB-231
MDA-N = system: MDA-N
RXF 393 = system: RXF 393
SF-539 = system: SF-539

`c1ccc(/N=C(\N2CCCC2)N(CCN2CCCC2)c2ccccc2)cc1` was tested. Which GI50 (786-0) did it give?
Its GI50 is 43.2 µM (inactive).

What about the GI50 (A549) of the same compound?
The GI50 was 56.6 µM (inactive).

And the GI50 (ACHN)?
The GI50 was 40 µM (inactive).

What about the GI50 (BT-549) of the same compound?
The GI50 was 15.6 µM (inactive).

What about the GI50 (CAKI-1) of the same compound?
The GI50 was 53.5 µM (inactive).

What about the GI50 (CCRF-CEM) of the same compound?
Its GI50 is 5.93 µM (inactive).

And the GI50 (COLO 205)?
Its GI50 is 7.33 µM (inactive).

And the GI50 (DU-145)?
Its GI50 is > 10 µM (inactive).

What about the GI50 (EKVX) of the same compound?
The GI50 was 73.3 µM (inactive).

And the GI50 (HCT-116)?
The GI50 was 1.83 µM (inactive).

And the GI50 (HCT-15)?
Its GI50 is 22.1 µM.

What about the GI50 (HL-60) of the same compound?
The GI50 was 2.91 µM (inactive).

And the GI50 (HOP-62)?
The GI50 was 9.79 µM (inactive).

And the GI50 (HOP-92)?
The GI50 was 22.6 µM (inactive).

And the GI50 (HT-29)?
The GI50 was 1.84 µM (inactive).

And the GI50 (Hs-578T)?
Its GI50 is 18.9 µM (inactive).

What about the GI50 (IGROV-1) of the same compound?
The GI50 was 24.9 µM (inactive).

What about the GI50 (K562) of the same compound?
Its GI50 is 3.8 µM (inactive).

And the GI50 (KM12)?
The GI50 was 11 µM (inactive).

And the GI50 (LOX IMVI)?
The GI50 was 2.86 µM (inactive).

And the GI50 (M14)?
Its GI50 is 8.34 µM (inactive).

And the GI50 (MCF7)?
The GI50 was 13.5 µM (inactive).

And the GI50 (MDA-MB-435)?
The GI50 was 7.67 µM (inactive).

And the GI50 (MOLT-4)?
Its GI50 is 3.98 µM (inactive).

What about the GI50 (Malme-3M) of the same compound?
The GI50 was > 100 µM (inactive).

What about the GI50 (NCI-H226) of the same compound?
Its GI50 is 23.7 µM (inactive).

And the GI50 (NCI-H23)?
The GI50 was 11.1 µM (inactive).

And the GI50 (NCI-H460)?
Its GI50 is 10.3 µM (inactive).

And the GI50 (NCI-H522)?
Its GI50 is 11.3 µM (inactive).

And the GI50 (NCI/ADR-RES)?
The GI50 was 37 µM (inactive).

And the GI50 (OVCAR-3)?
The GI50 was 20 µM (inactive).

What about the GI50 (OVCAR-4) of the same compound?
The GI50 was 32.1 µM (inactive).

And the GI50 (OVCAR-5)?
The GI50 was 29.6 µM (inactive).

And the GI50 (OVCAR-8)?
The GI50 was 24.4 µM (inactive).

What about the GI50 (PC-3) of the same compound?
Its GI50 is 5.5 µM (inactive).

What about the GI50 (RPMI-8226) of the same compound?
Its GI50 is 47.8 µM (inactive).

What about the GI50 (SF-268) of the same compound?
Its GI50 is > 10 µM (inactive).

And the GI50 (SF-295)?
Its GI50 is 6.32 µM (inactive).

And the GI50 (SK-MEL-28)?
Its GI50 is > 100 µM (inactive).

What about the GI50 (SK-MEL-2) of the same compound?
Its GI50 is 64.9 µM (inactive).

What about the GI50 (SK-MEL-5) of the same compound?
Its GI50 is 12.2 µM (inactive).

And the GI50 (SK-OV-3)?
Its GI50 is 63.4 µM (inactive).

What about the GI50 (SN12C) of the same compound?
Its GI50 is 29.8 µM (inactive).

And the GI50 (SNB-19)?
The GI50 was > 100 µM (inactive).

And the GI50 (SNB-75)?
Its GI50 is 14.4 µM (inactive).

And the GI50 (SR)?
The GI50 was 13.2 µM (inactive).

And the GI50 (SW-620)?
Its GI50 is 11.4 µM (inactive).

What about the GI50 (T47D) of the same compound?
Its GI50 is 28.8 µM (inactive).

And the GI50 (TK-10)?
Its GI50 is 30.8 µM (inactive).

And the GI50 (U-251)?
The GI50 was 29.9 µM (inactive).

What about the GI50 (UACC-257) of the same compound?
The GI50 was 21 µM (inactive).

And the GI50 (UACC-62)?
Its GI50 is 16.6 µM (inactive).

What about the GI50 (UO-31) of the same compound?
The GI50 was 14.8 µM (inactive).

With `O=C(Cn1c(=O)oc2ccccc21)N(c1ccccc1)c1ccccc1` as the compound, how does the GI50 (786-0) read?
Its GI50 is > 100 µM (inactive).

What about the GI50 (A498) of the same compound?
The GI50 was > 100 µM (inactive).

And the GI50 (ACHN)?
The GI50 was > 100 µM (inactive).

What about the GI50 (BT-549) of the same compound?
Its GI50 is > 100 µM (inactive).

What about the GI50 (CAKI-1) of the same compound?
The GI50 was > 100 µM (inactive).

What about the GI50 (CCRF-CEM) of the same compound?
Its GI50 is > 100 µM (inactive).

What about the GI50 (COLO 205) of the same compound?
Its GI50 is > 100 µM (inactive).

What about the GI50 (DU-145) of the same compound?
The GI50 was > 100 µM (inactive).

And the GI50 (EKVX)?
Its GI50 is 11.9 µM (inactive).

What about the GI50 (HCT-116) of the same compound?
Its GI50 is > 100 µM (inactive).

What about the GI50 (HCT-15) of the same compound?
Its GI50 is greater than 100 µM.

And the GI50 (HL-60)?
The GI50 was > 100 µM (inactive).

What about the GI50 (HOP-62) of the same compound?
The GI50 was > 100 µM (inactive).

And the GI50 (HT-29)?
Its GI50 is > 100 µM (inactive).

What about the GI50 (Hs-578T) of the same compound?
The GI50 was 40.9 µM (inactive).

What about the GI50 (IGROV-1) of the same compound?
Its GI50 is 26.5 µM (inactive).

And the GI50 (K562)?
Its GI50 is > 100 µM (inactive).

And the GI50 (KM12)?
The GI50 was > 100 µM (inactive).

What about the GI50 (LOX IMVI) of the same compound?
The GI50 was > 100 µM (inactive).

What about the GI50 (M14) of the same compound?
Its GI50 is > 100 µM (inactive).

And the GI50 (MCF7)?
Its GI50 is > 100 µM (inactive).

And the GI50 (MDA-MB-231)?
Its GI50 is > 100 µM (inactive).

What about the GI50 (MDA-MB-435) of the same compound?
Its GI50 is > 100 µM (inactive).

And the GI50 (MDA-N)?
Its GI50 is > 100 µM (inactive).

What about the GI50 (MOLT-4) of the same compound?
The GI50 was > 100 µM (inactive).

And the GI50 (Malme-3M)?
Its GI50 is 3.39 µM (inactive).

And the GI50 (NCI-H226)?
Its GI50 is 15.2 µM (inactive).

What about the GI50 (NCI-H23) of the same compound?
The GI50 was > 100 µM (inactive).

And the GI50 (NCI-H460)?
The GI50 was > 100 µM (inactive).

What about the GI50 (NCI/ADR-RES) of the same compound?
Its GI50 is 77.6 µM (inactive).

What about the GI50 (OVCAR-3) of the same compound?
The GI50 was > 100 µM (inactive).

And the GI50 (OVCAR-5)?
The GI50 was > 100 µM (inactive).

What about the GI50 (OVCAR-8) of the same compound?
Its GI50 is 52.8 µM (inactive).

And the GI50 (PC-3)?
The GI50 was > 100 µM (inactive).

What about the GI50 (RPMI-8226) of the same compound?
Its GI50 is > 100 µM (inactive).

What about the GI50 (RXF 393) of the same compound?
Its GI50 is > 100 µM (inactive).

What about the GI50 (SF-268) of the same compound?
Its GI50 is 67.5 µM (inactive).

What about the GI50 (SF-295) of the same compound?
Its GI50 is > 100 µM (inactive).

And the GI50 (SF-539)?
The GI50 was 88.9 µM (inactive).

What about the GI50 (SK-MEL-28) of the same compound?
Its GI50 is > 100 µM (inactive).

What about the GI50 (SK-MEL-2) of the same compound?
The GI50 was > 100 µM (inactive).

And the GI50 (SK-MEL-5)?
The GI50 was > 100 µM (inactive).

And the GI50 (SK-OV-3)?
The GI50 was > 100 µM (inactive).

And the GI50 (SN12C)?
The GI50 was > 100 µM (inactive).

What about the GI50 (SNB-19) of the same compound?
The GI50 was > 100 µM (inactive).

What about the GI50 (SNB-75) of the same compound?
The GI50 was 11.5 µM (inactive).

What about the GI50 (SR) of the same compound?
The GI50 was > 100 µM (inactive).

What about the GI50 (SW-620) of the same compound?
Its GI50 is > 100 µM (inactive).

And the GI50 (TK-10)?
The GI50 was > 100 µM (inactive).

What about the GI50 (U-251) of the same compound?
The GI50 was 95.1 µM (inactive).

And the GI50 (UACC-257)?
Its GI50 is > 100 µM (inactive).

What about the GI50 (UACC-62) of the same compound?
Its GI50 is > 100 µM (inactive).

What about the GI50 (UO-31) of the same compound?
Its GI50 is > 100 µM (inactive).

— ChEMBL document CHEMBL1201862, “PubChem BioAssay data set” (2004)
